Legend:
[1] = tested on: Spodoptera litura; test: Insecticidal effect for Spodoptera litura by spraying treatment to host crop (Test Example 2); assay type: in vivo; settings: 100 ppm, sprayed on soybean, third-instar larvae of Spodoptera litura, fifth day after; for pest or weed control at 100 ppm: 120 h, read-out: rate of dead pests (%)
Description: Insecticidal Effect for Spodoptera litura by Spraying Treatment to Host Crop
A pesticidal solution, which was prepared by dissolving 5 mg of test compound (represented by the compound Nos. in the above Examples) in 0.5-ml of acetone containing Tween 20 (trade name) and then diluting it to the prescribed concentration (100 ppm) with Dain (trade name, sticker) water diluted 5000-fold, was sprayed on a soybean whose primary leaves had developed completely with spray gun in the amounts wherein the pesticidal solution dripped. After drying the pesticidal solution, two primary leaves were cut off. The leaves were put into an ice cream cup (180 ml), and ten third-instar larvae of Spodoptera litura were set free therein. The cup was left in a temperature-controlled breeding room (25° C.). On the fifth day after, the number of surviving Spodoptera litura was examined. The rate of dead pests was calculated by the following formula. rate of dead pests (%)=(number of dead pests/number of test pests)×100

[2] = tested on: Spodoptera litura; test: Insecticidal effect for Spodoptera litura by immersion treatment of host crop root (Test Example 4); assay type: in vivo; settings: soybean root immersion 5 days, second-instar larvae of Spodoptera litura, fifth day after; for pest or weed control at 25 ppm: 120 h, read-out: rate of dead pests (%)
Description: Insecticidal Effect for Spodoptera litura by Immersion Treatment of Host Crop Root Roots of primary leaves developing stage soybean was washed with tap water to remove soil, and then immersed in a pesticidal solution which was prepared by dissolving 5 mg of test compound (represented by the compound Nos. in the above Examples) in 0.5 ml of acetone containing Tween 20 ([…]) with ion-exchange water, and which was filled in a light-shielded Erlenmeyer flask (100 ml). On the fifth day after immersion of root, two primary leaves were cut off, and the leaves were put into an ice cream cup (180 ml). Ten second-instar larvae of Spodoptera litura were set free therein, and the cup was left in a temperature-controlled breeding room (25° C.). On the fifth day after, the number of surviving Spodoptera litura was examined. The rate of dead pests was calculated by the following formula. rate of dead pests (%)=(number of dead pests/number of test pests)×100

| SMILES | rate of dead pests (%) [1] | rate of dead pests (%) ([2]; 25 ppm) | also measured |
| --- | --- | --- | --- |
| O=C(c1c(F)cccc1F)N1COCN(c2ccc(Cl)cc2)C1=O [I-1, 3-(4-chlorophenyl)-5-(2,6-difluorobenzoyl)tetrahydro-4H-1,3,5-oxadiazin-4-one] |  |  | pest or weed control at 100 ppm [1]: 100%; pest or weed control at 25 ppm ([2]; 25 ppm): 100% |
| C[S+]([O-])c1cc(F)c(N2COCN(C(=O)c3c(F)cccc3F)C2=O)c(F)c1 (stereo not shown) [I-32] | 100% | 90% |  |
| O=C(c1c(F)cccc1F)N1COCN(c2ccc(SCC=C(Cl)Cl)cc2F)C1=O [I-37] | 100% | 100% |  |
| O=C(c1c(F)cccc1F)N1COCN(CC(F)(F)F)C1=O [I-40] | 100% | 100% |  |
| CCSc1ccc(N2COCN(C(=O)c3c(F)cccc3F)C2=O)c(F)c1 [I-47] | 100% | 100% |  |
| CC[S+]([O-])c1ccc(N2COCN(C(=O)c3c(F)cccc3F)C2=O)c(F)c1 (stereo not shown) [I-48] |  | 100% |  |
| CCCSc1ccc(N2COCN(C(=O)c3c(F)cccc3F)C2=O)c(F)c1 [I-50] |  | 100% |  |
| CC(C)Sc1ccc(N2COCN(C(=O)c3c(F)cccc3F)C2=O)c(F)c1 [I-53] | 100% | 100% |  |
| C=CCSc1ccc(N2COCN(C(=O)c3c(F)cccc3F)C2=O)c(F)c1 [I-59] | 100% | 100% |  |
| C#CCSc1ccc(N2COCN(C(=O)c3c(F)cccc3F)C2=O)c(F)c1 [I-62] | 100% |  | rate of dead pests (%) ([2]; 5 ppm (so in the source)): 100% |
| O=C(c1c(F)cccc1F)N1COCN(c2ccc(SC(F)(F)F)cc2Cl)C1=O [I-74] | 100% | 100% |  |
| O=C(c1c(F)cccc1F)N1COCN(c2ccc([S+]([O-])C(F)(F)F)c(Cl)c2Cl)C1=O (stereo not shown) [I-93] | 100% | 100% |  |
| O=C(c1c(F)cccc1F)N1COCN(c2cc(Cl)c(SC(F)(F)F)cc2F)C1=O [I-98] | 100% | 95% |  |
| O=C(c1c(F)cccc1F)N1COCN(c2c(F)cc(SC(F)(F)F)cc2Cl)C1=O [I-101] | 100% | 100% |  |
| O=C(c1c(F)cccc1F)N1COCN(c2c(F)cc(SC(F)(F)F)cc2F)C1=O [I-104] | 100% | 100% |  |
| Cc1c(N2COCN(C(=O)c3c(F)cccc3F)C2=O)ccc(SC(F)(F)F)c1Cl [I-122] | 100% | 95% |  |
| O=C(c1c(F)cccc1F)N1COCN(c2ccc(SC(F)(F)C(F)(F)F)cc2F)C1=O [I-128, 3-(2,6-difluorobenzoyl)-5-[2-fluoro-4-(1,1,2,2,2-pentafluoroethylthio)phenyl]tetrahydro-4H-1,3,5-oxadiazin-4-one] |  |  | pest or weed control at 100 ppm [1]: 100%; pest or weed control at 25 ppm ([2]; 25 ppm): 100% |
| O=C(c1c(F)cccc1Cl)N1COCN(c2ccc([S+]([O-])C(F)F)cc2F)C1=O (stereo not shown) [I-219] | 100% | 100% |  |
| O=C(c1c(F)cccc1Cl)N1COCN(c2ccc(SC(F)(F)F)cc2Cl)C1=O [I-251] |  | 90% |  |
| O=C(c1c(F)cccc1Cl)N1COCN(c2ccc([S+]([O-])C(F)(F)F)cc2Cl)C1=O (stereo not shown) [I-252] | 100% | 100% |  |
| O=C(c1c(F)cccc1Cl)N1COCN(c2ccc([S+]([O-])C(F)(F)F)c(Cl)c2)C1=O (stereo not shown) [I-255] | 100% | 100% |  |
| O=C(c1c(F)cccc1Cl)N1COCN(c2cc(Cl)c(SC(F)(F)F)cc2F)C1=O [I-275] | 100% | 100% |  |
| O=C(c1c(F)cccc1Cl)N1COCN(c2c(F)cc(SC(F)(F)F)cc2Cl)C1=O [I-278] | 100% | 90% |  |
| O=C(c1c(F)cccc1Cl)N1COCN(c2c(F)cc(SC(F)(F)F)cc2F)C1=O [I-281] | 100% | 100% |  |
| O=C(c1c(F)cccc1Cl)N1COCN(c2cc(F)c([S+]([O-])C(F)(F)F)cc2F)C1=O (stereo not shown) [I-288] | 100% | 100% |  |
| O=C(c1c(F)cccc1Cl)N1COCN(c2ccc([S+]([O-])C(F)(F)C(F)(F)F)cc2F)C1=O (stereo not shown) [I-306] | 100% | 100% |  |

| SMILES | rate of dead pests (%) [1] | rate of dead pests (%) ([2]; 25 ppm) | also measured |
| --- | --- | --- | --- |
| O=C(c1c(F)cccc1Cl)N1COCN(c2ccc(S(=O)(=O)C(F)(F)C(F)(F)F)cc2F)C1=O [I-307] | 100% | 90% |  |
| O=C(c1c(Cl)cccc1Cl)N1COCN(c2ccc([S+]([O-])C(F)F)cc2F)C1=O (stereo not shown) [I-396] |  | 100% |  |
| O=C(c1c(Cl)cccc1Cl)N1COCN(c2ccc([S+]([O-])C(F)(F)F)cc2F)C1=O (stereo not shown) [I-399] | 100% | 100% |  |
| O=C(c1c(F)cccc1F)N1C[S+]([O-])CN(c2cc(Cl)c(F)c(Cl)c2F)C1=O (stereo not shown) [II-11] | 100% | 100% |  |
| O=C(c1c(F)cccc1F)N1CSCN(CC(F)(F)F)C1=O [II-64] |  | 95% |  |
| O=C(c1c(F)cccc1F)N1CN(c2ccccc2)CN(c2ccc(Cl)cc2)C1=O [III-2, 1-(4-chlorophenyl)-3-(2,6-difluorobenzoyl)-5-phenyltetrahydro-1,3,5-triazin-2(1H)-one] |  |  | pest or weed control at 100 ppm [1]: 100%; pest or weed control at 25 ppm ([2]; 25 ppm): 90% |
| C#CCN1CN(C(=O)c2c(F)cccc2F)C(=O)N(c2ccc(Cl)cc2)C1 [III-8] | 100% | 100% |  |
| CC(=O)N1CN(C(=O)c2c(F)cccc2F)C(=O)N(c2ccc(Cl)cc2)C1 [III-9, 5-acetyl-1-(4-chlorophenyl)-3-(2,6-difluorobenzoyl)tetrahydro-1,3,5-triazin-2(1H)-one] |  |  | pest or weed control at 25 ppm ([2]; 25 ppm): 95% |
| COC(=O)C(=O)N1CN(C(=O)c2c(F)cccc2F)C(=O)N(c2ccc(Cl)cc2)C1 [III-15] |  | 95% |  |
| O=C(c1c(F)cccc1F)N1CN(c2ccccc2)CN(c2ccc(Oc3ccc(C(F)(F)F)cc3Cl)cc2F)C1=O [III-30] | 100% |  |  |
| O=C(c1c(F)cccc1F)N1CN(C(=O)C(F)(F)F)CN(c2ccc(Oc3ccc(C(F)(F)F)cc3Cl)cc2F)C1=O [III-32] | 100% |  |  |
| O=C(c1c(F)cccc1F)N1CN(C2CC2)CN(c2ccc(Oc3ccc(C(F)(F)F)cc3Cl)cc2F)C1=O [III-36] | 100% |  |  |
| CN1CN(C(=O)c2c(F)cccc2F)C(=O)N(c2cc(Cl)c(F)c(Cl)c2F)C1 [III-51] | 100% |  |  |
| CC(C)N1CN(C(=O)c2c(F)cccc2F)C(=O)N(c2cc(Cl)c(F)c(Cl)c2F)C1 [III-52] | 100% |  |  |
| O=C(c1c(F)cccc1F)N1CN(C2CC2)CN(c2cc(Cl)c(F)c(Cl)c2F)C1=O [III-53] | 100% |  |  |
| CN1CN(C(=O)c2c(F)cccc2F)C(=O)N(c2cc(Cl)c(OC(F)(F)C(F)C(F)(F)F)cc2Cl)C1 (stereo not shown) [III-69] | 100% |  |  |
| CN1CN(C(=O)c2c(F)cccc2F)C(=O)N(c2ccc(SC(F)(F)C(F)Cl)cc2F)C1 (stereo not shown) [III-76] | 100% |  |  |
| CN1CN(CC(F)(F)F)C(=O)N(C(=O)c2c(F)cccc2F)C1 [III-144] |  | 100% |  |
| CS(=O)(=O)N1CN(C(=O)c2c(F)cccc2F)C(=O)N(c2ccc(SC(F)F)cc2F)C1 [III-150] | 100% |  |  |
| CC(=O)N1CN(C(=O)c2c(F)cccc2F)C(=O)N(c2ccc(SC(F)(F)F)cc2F)C1 [III-161, 1-(2,6-difluorobenzoyl)-3-[2-fluoro-4-(trifluoromethylthio)phenyl]-5-aceyltetrahydro-1,3,5-triazin-2(1H)-one] | 100% |  |  |
| CS(=O)(=O)N1CN(C(=O)c2c(F)cccc2F)C(=O)N(c2ccc(SC(F)(F)F)cc2F)C1 [III-162, 1-(2,6-difluorobenzoyl)-3-[2-fluoro-4-(trifluoromethylthio)phenyl]-5-methylsulfonyltetrahydro-1,3,5-triazin-2(1H)-one] |  |  | pest or weed control at 100 ppm [1]: 100% |
| CC(=O)N1CN(C(=O)c2c(F)cccc2F)C(=O)N(c2ccc([S+]([O-])C(F)(F)F)cc2F)C1 (stereo not shown) [III-165] | 100% |  |  |
| CS(=O)(=O)N1CN(C(=O)c2c(F)cccc2F)C(=O)N(c2ccc([S+]([O-])C(F)(F)F)cc2F)C1 (stereo not shown) [III-166] | 100% |  |  |
| Cc1cc(SC(F)(F)F)ccc1N1CN(C)CN(C(=O)c2c(F)cccc2Cl)C1=O [III-455] | 100% |  |  |
| O=C(c1c(F)cccc1F)N1C=NCN(c2cc(Cl)c(F)c(Cl)c2F)C1=O [IV-4, 3-(3,5-dichloro-2,4-difluorophenyl)-1-(2,6-difluorobenzoyl)-3,4-dihydro-1,3,5-triazin-2(1H)-one] |  |  | pest or weed control at 25 ppm ([2]; 25 ppm): 100% |

Source: patent US20050159599A1, “Cyclic compound, process for producing the same, and pest control agent” (priority 2002, published 2005)
